In the NIST ThermoML archive (doi:10.1021/acs.jced.8b00488):
± gives the expanded uncertainty stated by the source.

Conditions: Liquid, Ebulliometric method (Recirculating still)

Row | vapor or sublimation pressure (374.12 K) | Compound | vapor or sublimation pressure (329.33 K)
1 | – | CC(C)=O [acetone] | 101.3 ± 0.8 kPa
2 | 101.3 ± 0.8 kPa | C[Si](C)(C)O[Si](C)(C)C [hexamethyldisiloxane] | –
